Here are results for 1 compound from US20240261302A1, “METHODS OF TREATING NEURODEGENERATIVE DISEASES OR CONDITIONS” (FloraScience Inc., priority 2023, published 2024).

Test [1] relates to HT22 cells. The experiment in a line: Oxytosis Assay (glutamate-induced cell death, MTT). Type of test: cell-based, mouse. As for the experimental part: Oxytosis Assay. HT22 cells were seeded at 3,000 cells/well in 96-well tissue culture plates in DMEM plus 10% FBS and 1% antibiotics. After 24 hr of plating, the cells were pretreated with different concentrations of the test compounds or a vehicle control for 1 hr followed by coincubation with 5 mM glutamate to initiate the cell death cascade. After 16 hr of treatment, cell viability was measured by the 3−(4,5-dimethylthiazol-2-yl)-2,5-diphenyltetrazolium bromide (MTT) assay. Optical absorbance was measured at 570 nm on a SpectraMax M5 microplate reader. Samples were analyzed in eight to sixteen wells per independent experiment (n=8-16). Results were presented as the percentage of the controls with vehicle alone.

For test [2], the system named is HT22 mt-GFP/mCherry-Parkin cells. The experiment in a line: Cell viability after RSL3 with/without FCCP (CyQUANT DNA-based assay, fluorescence microscopy), mt-GFP/mCherry-Parkin cells. Set-up: species or system mouse.
The subject of test [3] is HT22 cells. The experiment in a line: Calcium Measurements (Fluo-4 AM, Rhod-2 AM). Type of test: cell-based, mouse. As for the experimental part: Calcium Measurements. HT22 cells were seeded onto 96-well black walled plates at a density of 5,000 cells/well in DMEM supplemented with 10% FBS and 1% antibiotics. After the desired treatments, Ca^2+ levels were detected with Fluo-4 AM (Ex/Em=494/516 nm) and Rhod-2 AM (Ex/Em=552/581 nm) calcium indicator dyes specific to cytosol and mitochondria, respectively. Fluorescence was measured on a SpectraMax M5 microplate reader. Experiments were performed according to the manufacturer's instructions. Data were normalized for total protein/well. Each condition was analyzed in sixteen wells per independent experiment (n=16). Results were presented as the percentage of the controls with vehicle alone. Results were verified by live-cell imaging under a fluorescence microscope.

The subject of test [4] is HT22 cells. Nature of the test: Relative mtDNA copy number (qPCR). It is filed as cell-based, mouse. As for the experimental part:
Quantitative Reverse Transcription PCR (qPCR) Analysis. HT22 cells were seeded onto 60 mm dishes at a density of 140,000 cells/dish in DMEM supplemented with 10% FBS and 1% antibiotics. After the desired treatments, total RNA was extracted using the RNeasy Mini Kit (Qiagen, Cat #74104, Hilden, Germany). cDNA was synthesized using SuperScript III First-Strand Synthesis System for qPCR (Invitrogen, Cat #18080051, Carlsbad, CA). Amplification was performed with TaqMan Fast Advanced Master Mix (ThermoFisher Scientific, Cat #4444556, Carlsbad, CA) using a QuantStudio 3 Real-Time PCR Systems (ThermoFisher Scientific, CA). The primer pairs were used as follows: CNR1 (Forward, 5′-[…]-3′; Reverse, 5′-[…]-3′); CNR2 (Forward, 5′-[…]-3′; Reverse, 5′-GCCGGGAGGACAGGATAAT-3′). The expression of the GAPDH gene was measured for normalization. The mouse Mitochondrial DNA Copy Number Kit was used (Detroit R&D, Cat #MCN3, Detroit, MI) according to the manufacturer's instructions. Relative fold change was calculated using the 2^(−ΔΔCt) method. Samples were analyzed in three dishes per independent experiment (n=3).
(Real-time PCR tracks product formation cycle by cycle.)

Test [5] concerns HT22 cells. Nature of the test: Reactive Oxygen Species Measurement (CellROX, MitoSOX). Type of test: cell-based, mouse. As for the experimental part: Reactive Oxygen Species Measurement. HT22 cells were seeded onto 96-well black walled plates at a density of 5,000 cells/well in DMEM supplemented with 10% FBS and 1% antibiotics. After the desired treatments, whole cell ROS and mitochondrial superoxide ROS were detected with CellROX Green reagent (Ex/Em=485/520 nm) and MitoSOX Red reagent (Ex/Em=510/580 nm), respectively. Experiments were performed according to the manufacturer's instructions. Fluorescence was measured on a SpectraMax M5 microplate reader. Data were normalized for total protein/well. Each condition was analyzed in sixteen wells per independent experiment (n=16). Results were presented as the percentage of the controls with vehicle alone. Results were verified by live-cell imaging under a fluorescence microscope.

In a further test the test system is HT22 mt-GFP cells. The experiment in a line: Mitochondrial Network Morphology Analysis. It is filed as cell-based, mouse. The protocol: Mitochondrial Network Morphology Analysis. HT22 mt-GFP cells were seeded at 20,000 cells/well on glass coverslips in 24-well plates in DMEM supplemented with 10% FBS and 1% antibiotics. The following day, the cells were treated with the test compounds for the desired period of time. After rinsing with PBS, the cells on glass coverslips were fixed with 4% paraformaldehyde (pH 7.4) for 10 min at 37° C. After additional PBS rinses, the coverslips were mounted onto glass microslides with Fluoro-Gel (Electron Microscopy Sciences, Cat #17985-10). Z-stack images of fixed cells were acquired on a Zeiss LSM 880 rear port laser scanning confocal and Airyscan FAST microscope with ZEN Black software to trace and render cells in 3D. The mitochondrial network morphology parameters (n=20-25 cells/condition) were scored and analyzed with the MiNA module of ImageJ/Fiji software.

In test [6] the test system is HT22 cells. Nature of the test: Seahorse XF Analysis (mitochondrial stress test) in HT22 cells. It is filed as cell-based, mouse. As for the experimental part: Seahorse XF Analysis. The assay procedure was previously described. Cellular oxygen consumption rates (OCR) were assayed with a XF Cell Mito Stress Test Kit using a Seahorse XFe96 Extracellular Flux Analyzer (Seahorse Bioscience, North Billerica, MA). Complete Seahorse XF DMEM assay medium was supplemented with 10 mM glucose, 1 mM pyruvate and 2 mM L-glutamine, at pH 7.4. Mitochondrial ETC inhibitors were used at the following concentrations: 1.5 μM oligomycin, 2 μM FCCP, and 0.5 μM of a 1:1 mixture of rotenone and antimycin A. Analyses were conducted using Wave software and XF Report Generators (Agilent Technologies). The sensor cartridge for the XFe analyzer was hydrated overnight at 37° C. before the experiment. OCR data were normalized for total protein/well. Each condition was analyzed in 20-40 wells per independent experiment (n=20-40).
For HT22 cells, 3,000 cells/well were seeded onto the Seahorse XFe96 plates under normal culture condition as described above. The next day, cells were pretreated with CBN at the desired concentrations for 1 hr followed by addition of RSL3 (50 nM) and coincubation for 16 hr. Immediately before the assay, the culture medium in the plates was replaced with complete Seahorse XF DMEM assay medium. The plates were incubated for 1 hr at 37° C. prior to the XF Cell Mito Stress tests according to the manufacturer's instructions.

In a further test the test system is CB1/CB2 receptors. The settings on record: cited from earlier work.

pEC50: −log10 of the molar value. “Also recorded” adds a separate entry of the source.

With `CCCCCc1cc(O)c2c(c1)OC(C)(C)c1ccc(C)cc1-2` [CBN, 6,6,9-Trimethyl-3-pentyl-benzo[c]chromen-1-ol], the glutamate-induced morphological changes entry with HT22 cells [1] (5 μM pretreatment 1 hr, then 5 mM glutamate 16 hr) is listed as “effectively prevented”. Further, the pEC50 in the test on HT22 cells [1] (Mus musculus, HT-22, 16 h, read-out: EC50 against oxytosis/ferroptosis induced by 5 mM glutamate (FIG. 2G)) is 5.72. For the same compound, the “protection against RSL3-induced cell death, no FCCP pretreatment” value in test [2] (16 hr) is “strong and equivalent protection”. In addition, in test [2] (FCCP 5 μM 24 hr, then 16 hr), the “protection against RSL3 after FCCP pretreatment (mitochondria-depleted cells)” value is reported as “failed to protect; also recorded: did not protect”. Besides, the “cell numbers after FCCP pretreatment, co-treatment with compound” value in test [2] (FCCP 24 hr, CBN additional 16 hr) is listed as “did not further change the cell numbers”. The “Ca^2+ in cytosol and mitochondria, compound alone” value in the test with HT22 cells [3] (5 μM, 16 hr) is reported as “did not affect Ca^2+ influx”. Besides, the “Ca^2+ levels in cytosol and mitochondria with RSL3” value with HT22 cells [3] (pretreatment 1 hr, co-incubation with RSL3) was “maintained basal Ca^2+ levels”. Moreover, the “mtDNA copy number with RSL3” value in the test with HT22 cells [4] (50 nM RSL3, 16 hr) is “sustain mtDNA at the control level”. Besides, the “mtDNA copy number, compound alone” value in the test with HT22 cells [4] (5 μM) is reported as “did not induce significant changes”. Also, the “RSL3-induced ROS production at cellular and mitochondrial levels” value in the test with HT22 cells [5] (50 nM RSL3, 16 hr) is listed as “suppressed”. Further, the “cellular and mitochondrial ROS (redox status), compound alone” value in the test with HT22 cells [5] (5 μM, 16 hr) was “did not affect the redox status of cells or mitochondria”. Moreover, the RSL3-induced mitochondrial fragmentation result in the test on HT22 mt-GFP cells (50 nM RSL3) was “prevent the mitochondrial fragmentation”. In the test on HT22 mt-GFP cells (CBN alone), the “individual and summed branch lengths of mitochondria” value is recorded as “significantly increased”; the “mitochondrial footprints and network branches” value is on record as “no apparent effects”. In addition, in the test on HT22 cells [6] (10 μM), the “ATP production, compound alone” value is recorded as “partially reduced ATP production”; the “basal and maximal mitochondrial respiration, compound alone” value is “partially decreased both basal and maximal mitochondrial respiration”. For the same compound, the “mitochondrial respiration and ATP production with RSL3” value with HT22 cells [6] (10 μM pretreatment, RSL3 50 nM 16 hr) was “maintenance of mitochondrial respiration and ATP production”. Further, in the test on CB1/CB2 receptors, the “activity at CB1/CB2 receptors” value was “weak agonist”. For the same compound, the “binding affinities compared to THC, fold lower” value with CB1/CB2 receptors (tissue- or cell-type specific) was 10 to 100 fold.
